From PubChem BioAssay AID1745844 (Carcinogenic Potency Database (CPDB), 2022)
Active and inactive are the calls of the source. No rule for the calls is given here.

Test system: rodent lifetime carcinogenesis bioassay, tumor incidence TD50
Assay: chronic cancer bioassays in animals – CPDB, compiled studies (AID 1745844)

## N=C1C=CC(=C(c2ccc(N)cc2)c2ccc(N)cc2)C=C1
hamster, strain Syrian Golden, females, by gavage, site: any site (literature study), lesion: several types, types named in the paper, dosed 84 weeks, study length 84 weeks
  carcinogen call: negative (inactive)
hamster, strain Syrian Golden, males, by gavage, site: any site (literature study), lesion: several types, types named in the paper, dosed 84 weeks, study length 84 weeks
  carcinogen call: negative (inactive)
mouse, strain B6C3F1, females, in feed, site: Harderian gland, lesion: adenoma, NOS + carcinoma, NOS + cystadenoma, NOS, dosed 103 weeks, study length 105 weeks
  TD50: 388 mg/kg/day
mouse, strain B6C3F1, females, in feed, site: Harderian gland, lesion: adenoma, NOS + cystadenoma, NOS, dosed 103 weeks, study length 105 weeks
  TD50: 316 mg/kg/day
mouse, strain B6C3F1, females, in feed, site: Harderian gland, lesion: adenoma, dosed 103 weeks, study length 105 weeks
  TD50: 548 mg/kg/day
mouse, strain B6C3F1, females, in feed, site: adrenal gland + liver, lesion: pheochromocytoma + pheochromocytoma, malignant + hepatocellular carcinoma, dosed 103 weeks, study length 105 weeks
  TD50: 28.8 mg/kg/day
mouse, strain B6C3F1, females, in feed, site: adrenal gland, lesion: pheochromocytoma + pheochromocytoma, malignant, dosed 103 weeks, study length 105 weeks
  TD50: 90.6 mg/kg/day
mouse, strain B6C3F1, females, in feed, site: all sites, lesion: malignant lymphoma, histiocytic type + malignant lymphoma, mixed type + malignant lymphoma, lymphocytic type + malignant lymph, dosed 103 weeks, study length 105 weeks
  TD50: 62.2 mg/kg/day
mouse, strain B6C3F1, females, in feed, site: all sites, lesion: malignant lymphoma, histiocytic type, dosed 103 weeks, study length 105 weeks
  TD50: 380 mg/kg/day
mouse, strain B6C3F1, females, in feed, site: all sites, lesion: malignant lymphoma, lymphocytic type, dosed 103 weeks, study length 105 weeks
  TD50: 151 mg/kg/day
mouse, strain B6C3F1, females, in feed, site: any site (literature study), lesion: several types, types named in the paper, dosed 103 weeks, study length 105 weeks
  TD50: 23.4 mg/kg/day
mouse, strain B6C3F1, females, in feed, site: liver, lesion: hepatocellular adenoma + hepatocellular carcinoma + neoplastic nodule, dosed 103 weeks, study length 105 weeks
  TD50: 20.3 mg/kg/day
mouse, strain B6C3F1, females, in feed, site: liver, lesion: hepatocellular adenoma + hepatocellular carcinoma, dosed 103 weeks, study length 105 weeks
  TD50: 20.3 mg/kg/day
mouse, strain B6C3F1, females, in feed, site: liver, lesion: hepatocellular adenoma, dosed 103 weeks, study length 105 weeks
  TD50: 35.9 mg/kg/day
mouse, strain B6C3F1, females, in feed, site: liver, lesion: hepatocellular carcinoma, dosed 103 weeks, study length 105 weeks
  TD50: 32.3 mg/kg/day
mouse, strain B6C3F1, females, in feed, site: lung, lesion: alveolar/bronchiolar adenoma + alveolar/bronchiolar carcinoma, dosed 103 weeks, study length 105 weeks
  TD50: 302 mg/kg/day
mouse, strain B6C3F1, females, in feed, site: lung, lesion: alveolar/bronchiolar adenoma, dosed 103 weeks, study length 105 weeks
  TD50: 326 mg/kg/day
mouse, strain B6C3F1, males, in feed, site: all sites, lesion: malignant lymphoma, mixed type, dosed 103 weeks, study length 104 weeks
  TD50: 610 mg/kg/day
mouse, strain B6C3F1, males, in feed, site: any site (literature study), lesion: several types, types named in the paper, dosed 103 weeks, study length 104 weeks
  TD50: 222 mg/kg/day
mouse, strain B6C3F1, males, in feed, site: liver, lesion: hepatocellular adenoma + hepatocellular carcinoma + neoplastic nodule, dosed 103 weeks, study length 104 weeks
  TD50: 116 mg/kg/day
mouse, strain B6C3F1, males, in feed, site: liver, lesion: hepatocellular adenoma + hepatocellular carcinoma, dosed 103 weeks, study length 104 weeks
  TD50: 116 mg/kg/day
mouse, strain B6C3F1, males, in feed, site: liver, lesion: hepatocellular carcinoma, dosed 103 weeks, study length 104 weeks
  TD50: 127 mg/kg/day
rat, strain Fischer 344, females, in feed, site: Zymbal's gland, lesion: carcinoma, NOS, dosed 103 weeks, study length 104 weeks
  TD50: 190 mg/kg/day
rat, strain Fischer 344, females, in feed, site: any site (literature study), lesion: several types, types named in the paper, dosed 103 weeks, study length 104 weeks
  TD50: 17.8 mg/kg/day
rat, strain Fischer 344, females, in feed, site: liver, lesion: hepatocellular adenoma + hepatocellular carcinoma + neoplastic nodule, dosed 103 weeks, study length 104 weeks
  TD50: 189 mg/kg/day
rat, strain Fischer 344, females, in feed, site: liver, lesion: hepatocellular carcinoma + neoplastic nodule, dosed 103 weeks, study length 104 weeks
  TD50: 189 mg/kg/day
rat, strain Fischer 344, females, in feed, site: mammary gland, lesion: adenocarcinoma, NOS + adenoma, NOS + fibroadenoma, dosed 103 weeks, study length 104 weeks
  TD50: 25.4 mg/kg/day
rat, strain Fischer 344, females, in feed, site: mammary gland, lesion: adenocarcinoma, NOS + adenoma, NOS, dosed 103 weeks, study length 104 weeks
  TD50: 156 mg/kg/day
rat, strain Fischer 344, females, in feed, site: mammary gland, lesion: adenocarcinoma, NOS, dosed 103 weeks, study length 104 weeks
  TD50: 232 mg/kg/day
rat, strain Fischer 344, females, in feed, site: mammary gland, lesion: fibroadenoma, dosed 103 weeks, study length 104 weeks
  TD50: 27.9 mg/kg/day
rat, strain Fischer 344, females, in feed, site: subcutaneous tissue + thyroid gland + Zymbal's gland, lesion: fibroma + follicular-cell adenoma + follicular-cell carcinoma + carcinoma, NOS, dosed 103 weeks, study length 104 weeks
  TD50: 32.2 mg/kg/day
rat, strain Fischer 344, females, in feed, site: subcutaneous tissue, lesion: fibroma, dosed 103 weeks, study length 104 weeks
  TD50: 44.5 mg/kg/day
rat, strain Fischer 344, females, in feed, site: subcutaneous tissue, lesion: fibrosarcoma + fibroma + sarcoma, NOS, dosed 103 weeks, study length 104 weeks
  TD50: 40.9 mg/kg/day
rat, strain Fischer 344, females, in feed, site: subcutaneous tissue, lesion: fibrosarcoma + fibroma, dosed 103 weeks, study length 104 weeks
  TD50: 42.8 mg/kg/day
rat, strain Fischer 344, females, in feed, site: thyroid gland, lesion: follicular-cell adenoma + follicular-cell carcinoma, dosed 103 weeks, study length 104 weeks
  TD50: 154 mg/kg/day
rat, strain Fischer 344, females, in feed, site: thyroid gland, lesion: follicular-cell adenoma, dosed 103 weeks, study length 104 weeks
  TD50: 318 mg/kg/day
rat, strain Fischer 344, females, in feed, site: uterus, lesion: endometrial stromal sarcoma, dosed 103 weeks, study length 104 weeks
  TD50: 133 mg/kg/day
rat, strain Fischer 344, males, in feed, site: Zymbal's gland, lesion: carcinoma, NOS, dosed 103 weeks, study length 104 weeks
  TD50: 124 mg/kg/day
rat, strain Fischer 344, males, in feed, site: any site (literature study), lesion: several types, types named in the paper, dosed 103 weeks, study length 104 weeks
  TD50: 15.7 mg/kg/day
rat, strain Fischer 344, males, in feed, site: body cavities + multiple sites + multiple organs + tunica vaginalis, lesion: mesothelioma, NOS + mesothelioma, malignant, dosed 103 weeks, study length 104 weeks
  TD50: 184 mg/kg/day
rat, strain Fischer 344, males, in feed, site: liver + skin + subcutaneous tissue + thyroid gland + Zymbal's gland, lesion: hepatocellular carcinoma + sebaceous adenoma + squamous-cell carcinoma + trichoepithelioma + fibroma + follicular-cell adenoma + fol, dosed 103 weeks, study length 104 weeks
  TD50: 21.2 mg/kg/day
rat, strain Fischer 344, males, in feed, site: liver, lesion: bile duct adenoma + bile duct carcinoma, dosed 103 weeks, study length 104 weeks
  TD50: 557 mg/kg/day
rat, strain Fischer 344, males, in feed, site: liver, lesion: hepatocellular adenoma + hepatocellular carcinoma + neoplastic nodule, dosed 103 weeks, study length 104 weeks
  TD50: 41.5 mg/kg/day
rat, strain Fischer 344, males, in feed, site: liver, lesion: hepatocellular carcinoma + neoplastic nodule, dosed 103 weeks, study length 104 weeks
  TD50: 41.5 mg/kg/day
rat, strain Fischer 344, males, in feed, site: liver, lesion: hepatocellular carcinoma, dosed 103 weeks, study length 104 weeks
  TD50: 140 mg/kg/day
rat, strain Fischer 344, males, in feed, site: liver, lesion: neoplastic nodule, dosed 103 weeks, study length 104 weeks
  TD50: 62.2 mg/kg/day
rat, strain Fischer 344, males, in feed, site: lung, lesion: alveolar/bronchiolar adenoma + alveolar/bronchiolar carcinoma, dosed 103 weeks, study length 104 weeks
  TD50: 254 mg/kg/day
rat, strain Fischer 344, males, in feed, site: lung, lesion: alveolar/bronchiolar adenoma, dosed 103 weeks, study length 104 weeks
  TD50: 281 mg/kg/day
rat, strain Fischer 344, males, in feed, site: pancreatic islets, lesion: islet-cell adenoma + islet-cell carcinoma, dosed 103 weeks, study length 104 weeks
  TD50: 152 mg/kg/day
rat, strain Fischer 344, males, in feed, site: pancreatic islets, lesion: islet-cell carcinoma, dosed 103 weeks, study length 104 weeks
  TD50: 252 mg/kg/day
rat, strain Fischer 344, males, in feed, site: skin, lesion: basal-cell carcinoma, dosed 103 weeks, study length 104 weeks
  TD50: 385 mg/kg/day
rat, strain Fischer 344, males, in feed, site: skin, lesion: sebaceous adenoma, dosed 103 weeks, study length 104 weeks
  TD50: 424 mg/kg/day
rat, strain Fischer 344, males, in feed, site: skin, lesion: squamous-cell carcinoma + squamous-cell papilloma, dosed 103 weeks, study length 104 weeks
  TD50: 93.8 mg/kg/day
rat, strain Fischer 344, males, in feed, site: skin, lesion: squamous-cell carcinoma, dosed 103 weeks, study length 104 weeks
  TD50: 130 mg/kg/day
rat, strain Fischer 344, males, in feed, site: skin, lesion: trichoepithelioma, dosed 103 weeks, study length 104 weeks
  TD50: 221 mg/kg/day
rat, strain Fischer 344, males, in feed, site: subcutaneous tissue, lesion: fibroma, dosed 103 weeks, study length 104 weeks
  TD50: 35.3 mg/kg/day
rat, strain Fischer 344, males, in feed, site: subcutaneous tissue, lesion: fibrosarcoma + fibroma + sarcoma, NOS, dosed 103 weeks, study length 104 weeks
  TD50: 33.4 mg/kg/day
rat, strain Fischer 344, males, in feed, site: subcutaneous tissue, lesion: fibrosarcoma + fibroma, dosed 103 weeks, study length 104 weeks
  TD50: 33 mg/kg/day
rat, strain Fischer 344, males, in feed, site: testis, lesion: interstitial-cell tumor, dosed 103 weeks, study length 104 weeks
  TD50: 15.6 mg/kg/day
rat, strain Fischer 344, males, in feed, site: thyroid gland, lesion: follicular-cell adenoma + follicular-cell carcinoma, dosed 103 weeks, study length 104 weeks
  TD50: 57 mg/kg/day
rat, strain Fischer 344, males, in feed, site: thyroid gland, lesion: follicular-cell adenoma, dosed 103 weeks, study length 104 weeks
  TD50: 176 mg/kg/day
rat, strain Fischer 344, males, in feed, site: thyroid gland, lesion: follicular-cell carcinoma, dosed 103 weeks, study length 104 weeks
  TD50: 73.9 mg/kg/day
rat, strain Sprague-Dawley, females, by gavage, site: any site (literature study), lesion: several types, types named in the paper, dosed 127 weeks, study length 127 weeks
  carcinogen call: negative (inactive)
rat, strain Sprague-Dawley, males, by gavage, site: any site (literature study), lesion: several types, types named in the paper, dosed 124 weeks, study length 124 weeks
  carcinogen call: negative (inactive)

## O=S(O)O
mouse, strain ICR/Jcl, females, in drinking water, site: liver, lesion: hemangioendothelial sarcoma, dosed 104 weeks, study length 104 weeks
  TD50: 204000 mg/kg/day (inactive)
mouse, strain ICR/Jcl, females, in drinking water, site: lung, lesion: adenocarcinoma, dosed 104 weeks, study length 104 weeks
  TD50: 100000 mg/kg/day (inactive)
mouse, strain ICR/Jcl, females, in drinking water, site: lung, lesion: adenoma, dosed 104 weeks, study length 104 weeks
  TD50: 33600 mg/kg/day (inactive)
mouse, strain ICR/Jcl, males, in drinking water, site: liver, lesion: one or several types, types not named, dosed 104 weeks, study length 104 weeks
  carcinogen call: negative (inactive)
mouse, strain ICR/Jcl, males, in drinking water, site: lung, lesion: adenocarcinoma, dosed 104 weeks, study length 104 weeks
  TD50: 84800 mg/kg/day (inactive)
mouse, strain ICR/Jcl, males, in drinking water, site: lung, lesion: adenoma, dosed 104 weeks, study length 104 weeks
  TD50: 84800 mg/kg/day (inactive)
